The text below walks through data of article PMC8583417, “Evaluation of the Antimicrobial Efficacy of N-Acetyl-L-Cysteine, Rhamnolipids, and Usnic Acid—Novel Approaches to Fight Food-Borne Pathogens” (International Journal of Molecular Sciences, 2021).

A value given as a limit tells only on which side of the number the result lay.

Experiment [1] has as its system E. coli 693/17. The experiment in a line: MIC for biofilm formation (crystal violet staining). The format is cell-based, Escherichia coli. As to conditions: for MICBF80: ≥80% prevention, 24 h. As for the experimental part:
(§1) Ten concentrations of NAC, RLs, and UA were tested to determine the minimum inhibitory concentration for planktonic growth, and subsequently, the six highest concentrations were applied on preformed biofilms to evaluate the biofilm eradication ability of the compounds. MIC was defined as the lowest substance concentration able to inhibit at least 80% of microbial growth (MICPC80 for planktonic cells, MICBC80 for further growth of biofilm cells), inhibit 80% of metabolic activity (MICBM80 for biofilm metabolic activity, MICMPB80 for metabolic activity of preformed biofilm), prevent biofilm formation by at least 80% (MICBF80 for biofilm formation), or reduce a preformed biofilm by at least 80% (MICBR80 for biofilm reduction). The results of MICs are summarized in Table 1 (planktonic cells) and Table 2 (biofilm-associated cells).
(§2) The determination of MICs was performed according to Chlumsky et al.. Briefly, 96-well flat-bottomed microtiter plates were inoculated with 75 µL (for biofilm formation) or 100 µL (for preformed biofilm) of bacterial suspension (A625nm 0.08 to 0.1) in technical triplicates and were then carefully mixed with the dilution series of the test substances (24 h cultivation at 25 °C for S. Infantis, 37 °C for other strains) or were directly cultivated to preform biofilms (18 h). For a positive control of bacterial growth, the inoculum was mixed with a pure sterile medium. Furthermore, the sterile medium was included in the plate as a marker of potential microbial contamination. To evaluate planktonic cells growth (MICPC80) and further growth of biofilm cells (MICBC80), the optical density of the content of the microtiter plates was measured spectrophotometrically at 625 nm before and after 24 h (for biofilm formation) of cultivation or before and after additional 20 h incubation with the tested compound (for preformed biofilm). The difference of A625nm was considered as a measure of the ability of cells to grow in the presence of the tested substances. To evaluate the inhibition of biofilm formation (MICBF80) and reduction in preformed biofilms (MICBR80), biomass was quantified using crystal violet staining, and its metabolic activity (MICBM80 and MICMPB80) was estimated by using the MTT (thiazyl tetrazolium bromide, Sigma-Aldrich, USA) reduction assay, both measured spectrophotometrically at 595 nm.
(§3) All inhibitions were calculated using the formula of Chlumsky et al. below (Equation (1)):(1) A625(595)nm inhibition (%)=A625(595)nm (control) – A625(595)nm(natural substance)/A625(595)nm (control)× 100 where A625(595)nm (control) is the absorbance of bacterial suspension/biofilm itself, and A625(595)nm(natural substance) is the absorbance of the bacterial suspension/biofilm with the added natural substance (NAC, RLs, and UA).
(§4) When the minimum inhibitory concentration could not be determined, the MIC was established as >the highest tested concentration for NAC, RLs, and UA.

In experiment [2] the test system is E. coli 683/17. The experiment is described as above. The format is cell-based, Escherichia coli. As to conditions: for MICBF80: ≥80% prevention, 24 h. Here is the method: as §1, §2, §3, §4
Experiment [3] relates to E. coli 693/17. The experiment in a line: CLSM analysis, biofilm removal (preformed biofilm). The format is cell-based, Escherichia coli. As to conditions: for Thickness (µm) subCBM80: substance at subinhibitory concentration. As for the experimental part:
(§5) Biofilm prevention and removal analyses were performed using previously determined minimum inhibitory and subinhibitory concentrations for metabolic activity (MICBM80, subCBM80; MICMPB80, subCMPB80) of NAC, RLs, and UA specific for each tested strain. Selected concentrations were used to evaluate the inhibition of biofilm formation (biofilm prevention) and the reduction in previously formed biofilms (biofilm removal) for the same set of microorganisms, with the exception of S. Infantis, which was excluded from the analysis due to its inability to form biofilm in the selected microtiter plate. Biofilm prevention and removal were observed using CLSM with specific staining to distinguish between live and membrane-compromised cells. Images were analyzed to evaluate (i). the total volume of the biomass, (ii). ratios of live and membrane-compromised cells, and (iii). to calculate biofilm volume reduction for individual organisms after the respective treatment types. The total biofilm volume was normalized by the area of the well and expressed as an average biofilm thickness. Complete data are provided in Supplementary Materials (Tables S1–S8).
(§6) At first, bacterial suspensions were cultivated in microtiter plates to produce overnight biofilms (18 h). […] cells were then washed out, and the remaining biofilms were further cultivated for an additional 20 h with selected compounds. Following biofilm cultivation, biomass was observed using CLSM with live/membrane-compromised cell staining. Biomass images from biofilm removal treatments were similar to results from biofilm prevention, where biomass was highly diversified across the bacterial species and strains. Visually, biomass images were fairly consistent within the quadruplicates for each tested organism. Non-treated biofilms of S. aureus contained consistent biomass spread across the well (S. aureus 816) or grown around the edges (S. aureus 1241). […] PI staining identified membrane-compromised cells spread across S. aureus 816 biomass and incorporated in the edge of biomass and/or in the central part of the well (Figure 4B,C). […] Membrane-compromised cells appeared contained around the edges (S. aureus 1241), disturbed across the well (in both strains of L. monocytogenes), or in separated biomass in the central part of the well (in both strains of E. coli when treated with the subinhibitory concentration of RLs) (Figure 4D,E).
(§7) For both inhibition and reduction of biofilms, overnight cultures from BHI were diluted in TSB + 1% Glc to reach an absorbance of 0.08 to 0.1 at 625 nm. The inoculum (150 µL) was transferred into wells of the 96-well flat-bottomed Ibidiμ-Plate (Ibidi, Gräfelfing, Germany) and mixed with 150 µL of each of the three tested substances in technical quadruplicates, followed by incubation at 37 °C for 24 h. Simultaneously, the prepared bacterial suspensions were inoculated to an additional microtiter plate (200 µL) and allowed to form biofilm overnight (18 h at 37 °C). After the incubation, the content of the well was drained off, and 200 µL of each of the three tested substances was added to the plate, which was then incubated for an additional 20 h. The used concentrations of the substances represented the subinhibitory and minimum inhibitory concentrations for metabolic activity (subCBM80, MICBM80; subCMPB80, MICMPB80). Both setups contained a positive control of the bacterial growth (inoculum mixed with sterile TSB + 1% Glc medium) and a control monitoring microbial contamination (sterile medium). Non-treated wells were used as a positive control for comparison between non-treated and treated biofilm mass.
(§8) Prior to the imaging, the wells were stained with the LIVE/DEAD® BacLight™ Bacterial Viability Kit (Thermo Fisher Scientific, MA, USA) following the manufacturer’s guidelines and Drago et al.. […]

Experiment [4] concerns E. coli 683/17. Nature of the experiment: CLSM analysis, biofilm removal (preformed biofilm). Type of experiment: cell-based, Escherichia coli. As to conditions: for Thickness (µm) subCBM80: substance at subinhibitory concentration. As for the experimental part: as §5, §6, §7, §8
The next experiment concerns S. aureus 816. Nature of the experiment: MIC for biofilm formation (crystal violet staining). The format is cell-based, Staphylococcus aureus. As to conditions: ≥80% prevention, 24 h. Here is the method:
as §1
as §2, with “Furthermore, the sterile medium was included in the plate as a marker of potential microbial contamination.” left out, “The difference of A625nm was considered as a measure of the ability of cells to grow in the presence of the tested substances.” left out
as §3, §4

The test system of a further experiment is S. aureus 1241. Described as above. Type of experiment: cell-based, Staphylococcus aureus. As to conditions: ≥80% prevention, 24 h. Here is the method:
as §1
as §2, with “Furthermore, the sterile medium was included in the plate as a marker of potential microbial contamination.” left out, “The difference of A625nm was considered as a measure of the ability of cells to grow in the presence of the tested substances.” left out
as §3, §4

The test system of a further experiment is L. monocytogenes 149. Nature of the experiment: MIC for metabolic activity of preformed biofilm (MTT reduction assay). As to conditions: ≥80% inhibition, 20 h with substance. Type of experiment: cell-based, Listeria monocytogenes. As for the experimental part: as §1
as §2, with “Furthermore, the sterile medium was included in the plate as a marker of potential microbial contamination.” left out, “The difference of A625nm was considered as a measure of the ability of cells to grow in the presence of the tested substances.” left out
as §3, §4
(In general: Formazan colour is commonly taken as a measure of viable cells.)

For the next experiment, the system named is L. monocytogenes 164. The description is as above. Type of experiment: cell-based, Listeria monocytogenes. As to conditions: ≥80% inhibition, 20 h with substance. Here is the method:
as §1
as §2, with “Furthermore, the sterile medium was included in the plate as a marker of potential microbial contamination.” left out, “The difference of A625nm was considered as a measure of the ability of cells to grow in the presence of the tested substances.” left out
as §3, §4

Setting [5] is: 20 h, subinhibitory concentration.
The mark [6] stands for this setting: preformed biofilm, 20 h exposure, mean ± SD.
[7] abbreviates: preformed biofilm, 20 h exposure, substance at its MIC, mean ± SD.

On to `CC(=O)c1c(O)c(C)c(O)c2c1OC1=CC(=O)C(C(C)=O)C(=O)C12C` (single isomer, unassigned; (+)) [UA, (+)-usnic acid], for which the “maximal achieved inhibition (MICBF80 not reached)” value in the experiment with E. coli 693/17 [1] (within tested concentrations) amounted to 47%; with E. coli 683/17 [2] (within tested concentrations), 10%. Moreover, the MICBF80 in the experiment with E. coli 693/17 [1] is given as > 31.3 µg/mL; against E. coli 683/17 [2], > 31.3 µg/mL; with S. aureus 816, 0.24 µg/mL; in the experiment with S. aureus 1241 it was 0.24 µg/mL. The “proportion of membrane-compromised cells” value with E. coli 693/17 [3] (setting [5]) and with E. coli 683/17 [4] (setting [5]) was “up to 40%” in each case. Also, the “Thickness (µm) subCBM80” value is reported as 254 ± 81.8 µm in the experiment on E. coli 693/17 [3] (setting [6]) and 285 ± 38.5 µm with E. coli 683/17 [4] (setting [6]). The MICMPB80 in the experiment on L. monocytogenes 149 was determined as 3.91 µg/mL; in the experiment on L. monocytogenes 164, 1.96 µg/mL.

With `CC(=O)N[C@@H](CS)C(=O)O` [NAC, N-Acetyl-L-cysteine], the MICBF80 against E. coli 693/17 [1] is given as 6250 µg/mL; against E. coli 683/17 [2], 6250 µg/mL; against S. aureus 816 it was 3130 µg/mL; with S. aureus 1241 it was 12,500 µg/mL. The “Thickness (µm) MICBM80” value with E. coli 693/17 [3] (setting [7]) stood at 222 ± 68.8 µm; with E. coli 683/17 [4] (setting [7]), 153 ± 33.3 µm. Moreover, the “Thickness (µm) subCBM80” value was found to be 181 ± 33.7 µm in the experiment with E. coli 693/17 [3] (setting [6]) and 128 ± 31.6 µm in the experiment with E. coli 683/17 [4] (setting [6]). Also, the MICMPB80 with L. monocytogenes 149 and in the experiment on L. monocytogenes 164 was 6250 µg/mL in each case.
